Tested on: mutant ERα
Details: 24 hr; estrogen-depleted medium containing 100 ng/ml Dox; absence of E2

Q: For `CC/C(=C(\c1ccccc1)c1ccc(OCCN(C)C)cc1)c1ccccc1` [tamoxifen], which “mutant ERα degradation” value is on record?
A: not
